Experimental findings from US6379959B1, “Metalocarboxypeptidase inhibitors and derived molecules used as antitumor agents” (Universitat Autonoma de Barcelona, priority 1996, dated 2002) are described below.

Like-named read-outs stand apart in the source and are kept apart here.

In experiment [1] the test system is human pancreatic adenocarcinoma cell line Capan-1. Nature of the experiment: Apoptosis by DAPI labeling and fluorescence microscope. The experiment is classed as cell-based. The settings on record: positive control, 10 μg/mL, 24 h. On the procedure: The studies of possible induction of apoptosis by the PCI were done with the human pancreatic adenocarcinoma cell line Capan-1. The detailed procedure that was employed is as follows:
1. 5×10^5 cells were seed in the chambers/slides and were cultured for 3 o 4 days (until the moment in which, through microscope observation, they presented 75% of confluence). The cells were cultured in DMEM+10% FBS.
2. […] A positive control was added, cysplatinum, at a concentration of 10 μg/mL (a drug which induces apoptosis in various tumor cell lines, Borner, M. M., et al. (1995) Cancer Res., 55: 2122-2128. The incubation period was 24 h.
3. The medium was removed after incubation and the chamber was washed with 2 mL of PBS.
5. Cells were fixed with 2 mL of 2% formaldehyde for 20 min at 4° C.
6. The plates were washed again with 2 mL of PBS for 5 min at room temperature.
7. Cell membranes were permeabilized with 0.25% Triton ×100 in PBS for 5 min at 4° C.
8. Washed with PBS for 5 min at room temperature.
9. The cells were labeled with DAPI at a final concentration of 2 μg/mL for 50 min in darkness at room temperature.
10. The preparation was fitted with the fluoroprep medium and it was examined through the fluorescence microscope.
% apoptosis=(number of apoptotic cells/total number of cells)×100

Experiment [2] shares this test system. The experiment is classed as cell-based. The settings on record: SFM, 72 h. As for the experimental part:
Other kinds of tests were also carried out, the cells growing in serum-free medium as well; these were studies at short periods of time, 72 h, and of competitiveness with a growth factor plus wtPCI, PCIdelYVG or tail. […] The protocol employed was as follows:
1. In a culture plate of 96 wells, in 42 of which 5,000 cells per well were seed. The cells were placed in full medium (DMEM+10%FBS).
2. After 72 h, once the adhesion of the cells to the surface of the well had taken place, as well as their division, the medium was removed from the wells and to eliminate the remainder of the serum, 200 μL of PBS were added to each well.
3. The PBS was removed and 200 μL of DMEM-FBS were added.
4. After 24 h, the medium was removed and the following treatments were applied:
(§1) In 6 wells (control): 200 μL of serum-free medium (SFM) were added.
200 μL of SFM plus the indicated concentration of one of the growth factors and wtPCI were added in 6 wells at a final concentration of 50 μg/mL.
In 6 wells, 200 μL of SFM plus the indicated concentration of one of the growth factors and PCIdelYVG were added at a final concentration of 46 μg/mL. […]
4. Cells were kept in an incubator at 37° C., 87% of relative humidity and 10% of CO2.
5. After 72 h, the cellular growth per well was evaluated using the method detailed in the protocol of Section 4.B.2.a.

For experiment [3], the system named is human pancreatic adenocarcinoma cell line Panc-1. The class given is cell-based. The note with it: SFM, 72 h. On the procedure:
The tests that were carried out growing in free bovine fetal serum medium were very similar to those used in the line Capan-1 described in Section 4.B.2.b. The protocol employed is as follows:
1. A culture plate with 96 wells, in 42 of which 5,000 cells were seed per well. The cells were placed in full medium (RPMI+10%FBS).
2. After 48 h, after the cells had adhered to the surface of the well and they had divided as well, the medium was drained from the wells and to eliminate the rest of the serum, 200 μL of PBS were added to each well.
3. The PBS was removed and 200 μL of RPMI-FBS were added.
4. After 48 h, the medium was removed and the following treatments were applied:
as §1
In 6 wells, 200 μL of SFM plus the indicated concentration of one of the growth factors and wtPCI at a final concentration of 50 μg/mL were added.
In 6 wells, 200 μL of SFM plus the indicated concentration of one of the growth factors and PCIdelYVG at a final concentration of 46 μg/mL were added.
In 6 wells, 200 μL of SFM plus the indicated concentration of one of the growth factors and tail at a final concentration of 6.4 μg/mL were added.
In 6 wells, 200 μL of SFM plus the indicated concentration of one of the growth factors and wtPCI at a final concentration of 50 μg/mL combined with tail at a final concentration of 6.4 μg/mL were added.
In 6 wells, 200 μL of SFM plus the indicated concentration of one of the growth factors and PCIdelYVG at a final concentration of 46 μg/mL combined with tail at a final concentration of 6.4 μg/mL were added.
The cells were kept in an incubator at 37° C., 87% of relative humidity and 10% of CO2.
5. After 72 h, the cell growth per well was evaluated using the method detailed in the protocol of Section 4.B.2.a.

For experiment [4], the target named is T1, carboxypeptidase (Bos taurus, UniProt P00730).
T1 sequence (P00730 111-419): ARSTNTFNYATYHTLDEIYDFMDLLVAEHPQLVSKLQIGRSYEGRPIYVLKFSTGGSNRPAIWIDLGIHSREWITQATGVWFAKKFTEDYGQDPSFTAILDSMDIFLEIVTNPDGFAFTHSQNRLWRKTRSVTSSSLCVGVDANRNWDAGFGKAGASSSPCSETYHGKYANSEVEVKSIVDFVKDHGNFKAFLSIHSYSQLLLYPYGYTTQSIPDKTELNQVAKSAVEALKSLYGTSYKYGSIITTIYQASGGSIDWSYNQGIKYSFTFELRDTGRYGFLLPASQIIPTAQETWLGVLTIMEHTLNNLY
The experiment can be described thus: Carboxypeptidase inhibiting effect. The class given is biochemical. On the procedure:
All the buffers employed in HPLC and FPLC are prepared employing Mono-Q water and are filtered through membranes of 0.22 μm and degassed immediately before use. The HPLC, as well as the FPLC, are done at room temperature. The process of purification is done by determining the global concentration of proteins after each step using the Bradford method; the concentration of recombinant PCI is evaluated by measuring its inhibitory effect of CPA using appropriate blanks; or, in the case of PCI mutants with little or zero carboxypeptidase activity, by ELISA with rabbit polyclonal antibodies against PCI.
To determine whether the inhibiting effect on cellular growth of the PCI is related to its carboxypeptidase inhibiting effect or with its specific knotin topology, tests of cellular inhibition with a mutant form were carried out. Concretely, the deletion of the three C-terminal amino acids was designed resulting in the form PCIdelY37V38G39 (or PCIdelYVG). This form was designed and constructed because it keeps the structure and the topology of wild PCI. This is inferred from the fact that it presents a similar chromatographic behaviour to that of the wild form and that it can be detected by antibodies antiwtPCI. Also by means of computer simulation (by molecular dynamics using the GROMOS programme) it presented a similar behaviour to the wild form after 300 ps of dynamics.

Experiment [5] relates to human pancreatic adenocarcinoma cell line Capan-1. The note with it: serum-free medium, 16 days.
Protocol: Two kinds of tests were carried out; the first one is the treatment of cells of the human pancreatic adenocarcinoma cell line Capan-1 with wtPCI and tail added to the culture medium in absence of serum.
In a culture plate with 96 wells, 5,000 cells were seed per well, in 24 of them. The cells were placed in full medium (DMEM+10%FBS).
In 6 wells (control): 200 μL of serum-free medium (DMEM-FBS) and free of tail were added.
200 μL of serum-free medium with 50 μg/mL of native PCI were added.
In 6 wells, 200 μL of serum-free medium with 0.128 μg of tail/mL were added.
In 6 wells, serum-free medium with 6.4 μg of tail/mL was added.
The medium contained in the wells was changed every 3-4 days. The old medium was sucked out using a Pasteur pipette.
After 16 days, the cell growth per well was evaluated according to the method detailed in the protocol of Section 4.B.2.a.
The test system of experiment [6] is human pancreatic adenocarcinoma cell line Panc-1. The class given is cell-based. The note with it: SFM, 72 h. The source holds these as a separate data set.
The test system is the same in experiment [7]. Nature of the experiment: Proliferation test with tetrazolium salts, Panc-1 in medium with serum, 10 days. The experiment is classed as cell-based. As for the experimental part:
It was performed the same kind of test which had been carried out for the Capan-1 cell line but with Panc-1, another human pancreatic adenocarcinoma cell line. We are referring to a human pancreatic adenocarcinoma ATCC nr. CRL 1469, established by Lieber, M. et al. (1975) In. J. Cancer, 15: 741-747. Of ductal origin, it is not highly differentiated.
As for the Capan-1 cell line, two types of experiments were carried out with and without bovine fetal serum. The protocol followed for the test, growing in RPMI plus bovine fetal serum, was the same as that used with Capan-1 cell line but with small variations, given the difference in the duplication times between the two lines. The tests were carried out with the native PCI (wtPCI) and with the mutant PCI (PCIdelYVG). The protocol is detailed as follows:
1. In a culture plate with 96 wells, 2,000 cells were seed in 30 wells for the tests with wtPCI and in 36 for the tests with PCIdelYVG. From these 30 or 36:
In 6 wells (control), 200 μL of full medium (RPMI+10%FBS) without wtPCI or PCIdelYVG/mL were added. […]
2. The cells were kept in an incubator at 37° C., 87% of relative humidity and 10% of CO2. The old medium was sucked out with a Pasteur pipette. Medium free of wtPCI or PCIdelYVG was added to the control wells and to the others a medium was added with identical concentration of wtPCI or PCIdelYVG.
3. After 10 days, the cell growth was evaluated per well, according to the method detailed in the protocol of Section 4.B.2.a.

For experiment [8], the system named is Panc-1 cells. The experiment can be described thus: Internalization studies by means of fluorescence (RITC labeling), Panc-1. The note with it: accumulation around the nucleus. The experiment is classed as cell-based, human. As for the experimental part:
In fluorescence studies, the possible internalization of PCI, labeled with a fluorophore, by Capan-1 and Panc-1 cell lines was followed by microscope observation.
In the incorporation studies of the RITC-PCI, the protocol of Billings, P. C. et al. (1989) Carcinogenesis, 10: 687-691, slightly modified, was followed:
1. 200,000 cells of the cell line to be studied were placed in culture chambers/slides and were left there to grow for 48 h.
2. The medium of the cells growing in exponential phase was changed and 20 or 50 μg/mL of RITC-PCI were added to the new medium, keeping it in the medium for a variable incubation time ranging from 1 minute to 4 h inside the incubator.
3. The medium was retired after the incubation and the monolayer of the cells was washed with PBS for 10 min in darkness.
4. The cells were fixed with 350 μl of a solution 50% methanol—50% acetone for 8 min at 4° C. in a dark and humid chamber.
5. The cells were washed again with PBS for 10 min in darkness.
6. The preparations were dried with absorbing paper being very careful not to touch the cells. The preparations were fitted with PBS: Glycerol (1:1) and were sealed with nail polish.
The labeling protocol was exactly the same as that of the wild PCI, as described in Section 4.F.1.b. The studies of incorporation of the labeled mutant were carried out as described in Section 4.F.1.c.

The mark [9] stands for this setting: Insulina 5 mg/mL + 6.4 mg/mL tail.
Setting [10] is: EGF 10 ng/mL + 46 mg/mL PCIdelYVG.
Where [11] appears, read: Insulin 5 mg/mL + 46 mg/mL PCIdelYVG.

As to `N.N.[Cl][Pt][Cl]` [cysplatinum, reference compound], the “% Apoptosis” value in experiment [1] was 5.19%.
As for “EGF: epidermic growth factor [reference compound]”, the “Growth (Percentage in relation to the average of the controls)” value in experiment [2] (EGF 10 ng/mL alone) came to 106.66%; in experiment [3] (EGF 10 ng/mL alone), 63.52%. In addition, in experiment [2] (EGF alone, at the tested concentration (10 ng/mL)), the “growth in relation to the control situation” value was “no differences in relation to the control situation”. For the same compound, in experiment [3] (EGF alone, in the tested concentration (10 ng/mL)), the “inhibition in relation to the control situation” value is on record as 36%.
As to “H-GPYVG-OH [tail, H-Gly-Pro-Tyr-Val-Gly-OH]”, the “Growth (Percentage in relation to the average of the controls)” value is given as 28.33% in experiment [2] (EGF 10 ng/mL + 6.4 mg/mL tail); 52.58% in experiment [2] (setting [9]); 81.95% in experiment [5] (0.128 mg/mL tail); 77% in experiment [5] (6.4 mg/mL tail); 16.23% in experiment [6] (EGF 10 ng/mL + 6.4 mg/mL tail); 24.84% in experiment [6] (setting [9]). The carboxypeptidase inhibitory activity entry in experiment [4] is on record as “lacks carboxypeptidase inhibitory activity”.
Consider “IGF-1: growth factor 1 of the insulin type [reference compound]”, for which the “stimulation in relation to the control” value in experiment [2] (IGF-1 alone (20 ng/mL)) is recorded as 58%. In experiment [3] (IGF-1 alone (20 ng/mL)), the “stimulation in relation to control” value was determined as 26%.
Consider “Insulin: growth factor used to stimulate proliferation [reference compound]”, for which the “Growth (Percentage in relation to the average of the controls)” value in experiment [2] (Insulin 5 mg/mL alone) is 292.86%; in experiment [3] (Insulin 5 mg/mL alone), 193.47%. Further, in experiment [2] (insulin alone (5 μg/mL)), the “stimulation in relation to the control” value was 193%. For the same compound, the “stimulation in relation to control” value in experiment [3] (insulin alone (5 μg/mL)) was 93%.
For the compound “PCIdelYVG: recombinant PCI mutant with deletion of the three C-terminal amino acids Tyr-Val-Gly (EQHADPICNKPCKTHDDCSGAWFCQACWNSARTCGP; Potato; (1)..(39) Isoform IIa of the potato carboxypeptidase inhibitor)”, the “Growth (Percentage in relation to the average of the controls)” value is listed as 40.83% in experiment [2] (setting [10]); 44.60% in experiment [2] (setting [11]); 5.53% in experiment [6] (setting [10]); 21.41% in experiment [6] (setting [11]); 112.92% in experiment [7] (0.092 mg/mL PCIdelYVG, RPMI+10%FBS); 105.43% in experiment [7] (0.92 mg/mL PCIdelYVG). Moreover, the “Growth (Percentage in relation to the average of the controls)” value turned out to be 94.85% in experiment [7] (23 mg/mL PCIdelYVG) and 85.51% in experiment [7] (46 mg/mL PCIdelYVG). Also, the Ki entry in experiment [4] is “micromolar level”. Moreover, in experiment [4] (compared with wild PCI), the “decrease of the inhibitory capacity” value is reported as 3 orders of magnitude. The “inhibition of the growth” value in experiment [7] (46 μg/mL concentration) was 15%. Besides, the “stimulus of the growth” value in experiment [7] (concentration 0.092 μg/mL) amounted to 13%. Besides, the “incorporation of RITC-labeled mutant by the cells” value in experiment [8] is reported as “is incorporated by the cells”.
